{
  "source": "patent US10342765B2",
  "about": "“Therapeutic compositions comprising monoterpenes” (priority 2009, dated 2019)",
  "origin": "cited, not measured here",
  "key": {"[1]": {"conditions": "nasal inhalation; nasal inhaler four times daily"}, "[2]": {"system": "systemic malignancies including breast, lung, pancreatic, melanomas"}, "[3]": {"system": "malignant gliomas", "conditions": "patients with malignant gliomas; nasal inhalation"}},
  "note": "“Also recorded” adds a separate entry of the source.",
  "data": [
    {"molecule": "C=C(C)[C@@H]1CC=C(CO)CC1", "note": "[POH, perillyl alcohol]", "values": [
      {"measurement": "tolerability in patients", "setting": "[1]", "result": "safely tolerated; also recorded: well tolerated, with minimal side effects"},
      {"measurement": "effectiveness against systemic malignancies", "setting": "[2]", "result": "effective"},
      {"measurement": "tumor size (radiographic)", "setting": "[3]", "result": "radiographic reduction in tumor size"}
    ]}
  ]
}
